Measurements published in PMC12090182, “Repurposing of the RIPK1-Selective Benzo[1,4]oxazepin-4-one Scaffold for the Development of a Type III LIMK1/2 Inhibitor” (ACS Chemical Biology, 2025).

Key:
Assay in all cases: biochemical
Assay type in all cases: binding
[1] = molecular target: 468 kinases including some pathogenic mutants (Homo sapiens, UniProt Q8WU08); conditions: YANK1 (Entrez STK32A), 100 nM; read-out: Percent Control
[2] = molecular target: 468 kinases including some pathogenic mutants (Homo sapiens, UniProt Q13705); conditions: ACVR2B (Entrez ACVR2B), 100 nM; read-out: Percent Control
[3] = molecular target: 468 kinases including some pathogenic mutants (Homo sapiens, UniProt P00533, G719S); conditions: read-out: Percent Control
468 kinases including some pathogenic mutants (Homo sapiens, UniProt P00533, G719S), sequence (P00533 25-1210 G719S): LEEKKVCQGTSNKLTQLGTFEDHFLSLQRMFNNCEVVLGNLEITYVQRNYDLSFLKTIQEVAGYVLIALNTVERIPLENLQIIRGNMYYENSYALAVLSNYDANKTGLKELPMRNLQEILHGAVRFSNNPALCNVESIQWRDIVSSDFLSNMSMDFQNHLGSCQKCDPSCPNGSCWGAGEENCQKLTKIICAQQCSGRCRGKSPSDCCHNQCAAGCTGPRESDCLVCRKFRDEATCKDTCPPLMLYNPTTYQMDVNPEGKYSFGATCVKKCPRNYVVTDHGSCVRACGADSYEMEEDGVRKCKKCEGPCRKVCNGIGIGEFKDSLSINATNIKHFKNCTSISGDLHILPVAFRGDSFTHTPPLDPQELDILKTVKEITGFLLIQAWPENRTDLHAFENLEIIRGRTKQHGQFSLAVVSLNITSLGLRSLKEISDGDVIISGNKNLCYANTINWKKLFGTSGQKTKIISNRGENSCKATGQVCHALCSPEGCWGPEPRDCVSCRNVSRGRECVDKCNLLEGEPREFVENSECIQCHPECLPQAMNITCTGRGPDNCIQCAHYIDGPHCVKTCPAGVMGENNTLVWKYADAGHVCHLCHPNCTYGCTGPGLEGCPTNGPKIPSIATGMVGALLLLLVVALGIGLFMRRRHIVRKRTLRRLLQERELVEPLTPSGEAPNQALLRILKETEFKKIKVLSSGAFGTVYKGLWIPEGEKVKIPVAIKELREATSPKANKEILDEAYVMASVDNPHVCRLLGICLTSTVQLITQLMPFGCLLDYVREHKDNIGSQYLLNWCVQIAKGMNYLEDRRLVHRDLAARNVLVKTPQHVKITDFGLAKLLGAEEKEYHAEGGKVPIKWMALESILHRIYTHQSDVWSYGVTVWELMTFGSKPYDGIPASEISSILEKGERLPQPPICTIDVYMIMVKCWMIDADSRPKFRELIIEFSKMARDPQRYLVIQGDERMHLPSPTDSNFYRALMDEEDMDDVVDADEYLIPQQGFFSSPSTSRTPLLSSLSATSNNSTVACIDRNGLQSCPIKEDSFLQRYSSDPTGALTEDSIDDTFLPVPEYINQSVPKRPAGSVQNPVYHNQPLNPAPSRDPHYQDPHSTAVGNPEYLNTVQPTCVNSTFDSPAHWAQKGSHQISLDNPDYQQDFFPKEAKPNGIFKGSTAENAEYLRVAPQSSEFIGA

[4] = molecular target: 468 kinases including some pathogenic mutants (Homo sapiens, UniProt P29376); conditions: LTK (Entrez LTK), 100 nM; read-out: Percent Control
[5] = molecular target: 468 kinases including some pathogenic mutants (Homo sapiens, UniProt P22694); conditions: PKAC-beta (Entrez PRKACB), 100 nM; read-out: Percent Control
[6] = molecular target: 468 kinases including some pathogenic mutants (Homo sapiens, UniProt Q86UE8); conditions: TLK2 (Entrez TLK2), 1000 nM; read-out: Percent Control
468 kinases including some pathogenic mutants (Homo sapiens, UniProt Q86UE8), sequence (Q86UE8 whole entry, change not shown): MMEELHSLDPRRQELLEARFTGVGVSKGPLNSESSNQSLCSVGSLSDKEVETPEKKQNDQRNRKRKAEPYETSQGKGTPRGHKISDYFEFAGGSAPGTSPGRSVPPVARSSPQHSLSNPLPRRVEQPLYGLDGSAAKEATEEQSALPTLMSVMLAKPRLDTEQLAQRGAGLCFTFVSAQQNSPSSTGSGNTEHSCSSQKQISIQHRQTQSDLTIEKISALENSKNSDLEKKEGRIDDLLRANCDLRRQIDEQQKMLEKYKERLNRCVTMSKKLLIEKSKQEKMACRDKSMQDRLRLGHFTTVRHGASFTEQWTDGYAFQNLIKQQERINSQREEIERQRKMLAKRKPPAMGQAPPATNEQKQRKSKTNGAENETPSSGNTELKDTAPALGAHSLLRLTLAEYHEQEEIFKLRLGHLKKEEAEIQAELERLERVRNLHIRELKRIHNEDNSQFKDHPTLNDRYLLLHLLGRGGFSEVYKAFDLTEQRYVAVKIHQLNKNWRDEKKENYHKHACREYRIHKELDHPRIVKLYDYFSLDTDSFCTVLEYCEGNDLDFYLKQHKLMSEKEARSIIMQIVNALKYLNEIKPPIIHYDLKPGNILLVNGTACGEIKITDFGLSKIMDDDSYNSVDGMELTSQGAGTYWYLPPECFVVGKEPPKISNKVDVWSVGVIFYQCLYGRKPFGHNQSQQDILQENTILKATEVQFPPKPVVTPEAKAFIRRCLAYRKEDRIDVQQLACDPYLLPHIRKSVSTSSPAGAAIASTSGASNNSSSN

[7] = molecular target: 468 kinases including some pathogenic mutants (Homo sapiens, UniProt Q9BYT3); conditions: STK33 (Entrez STK33), 1000 nM; read-out: Percent Control
[8] = molecular target: 468 kinases including some pathogenic mutants (Homo sapiens, UniProt Q9UM73, C1156Y); conditions: read-out: Percent Control
468 kinases including some pathogenic mutants (Homo sapiens, UniProt Q9UM73, C1156Y), sequence (Q9UM73 19-1620 C1156Y): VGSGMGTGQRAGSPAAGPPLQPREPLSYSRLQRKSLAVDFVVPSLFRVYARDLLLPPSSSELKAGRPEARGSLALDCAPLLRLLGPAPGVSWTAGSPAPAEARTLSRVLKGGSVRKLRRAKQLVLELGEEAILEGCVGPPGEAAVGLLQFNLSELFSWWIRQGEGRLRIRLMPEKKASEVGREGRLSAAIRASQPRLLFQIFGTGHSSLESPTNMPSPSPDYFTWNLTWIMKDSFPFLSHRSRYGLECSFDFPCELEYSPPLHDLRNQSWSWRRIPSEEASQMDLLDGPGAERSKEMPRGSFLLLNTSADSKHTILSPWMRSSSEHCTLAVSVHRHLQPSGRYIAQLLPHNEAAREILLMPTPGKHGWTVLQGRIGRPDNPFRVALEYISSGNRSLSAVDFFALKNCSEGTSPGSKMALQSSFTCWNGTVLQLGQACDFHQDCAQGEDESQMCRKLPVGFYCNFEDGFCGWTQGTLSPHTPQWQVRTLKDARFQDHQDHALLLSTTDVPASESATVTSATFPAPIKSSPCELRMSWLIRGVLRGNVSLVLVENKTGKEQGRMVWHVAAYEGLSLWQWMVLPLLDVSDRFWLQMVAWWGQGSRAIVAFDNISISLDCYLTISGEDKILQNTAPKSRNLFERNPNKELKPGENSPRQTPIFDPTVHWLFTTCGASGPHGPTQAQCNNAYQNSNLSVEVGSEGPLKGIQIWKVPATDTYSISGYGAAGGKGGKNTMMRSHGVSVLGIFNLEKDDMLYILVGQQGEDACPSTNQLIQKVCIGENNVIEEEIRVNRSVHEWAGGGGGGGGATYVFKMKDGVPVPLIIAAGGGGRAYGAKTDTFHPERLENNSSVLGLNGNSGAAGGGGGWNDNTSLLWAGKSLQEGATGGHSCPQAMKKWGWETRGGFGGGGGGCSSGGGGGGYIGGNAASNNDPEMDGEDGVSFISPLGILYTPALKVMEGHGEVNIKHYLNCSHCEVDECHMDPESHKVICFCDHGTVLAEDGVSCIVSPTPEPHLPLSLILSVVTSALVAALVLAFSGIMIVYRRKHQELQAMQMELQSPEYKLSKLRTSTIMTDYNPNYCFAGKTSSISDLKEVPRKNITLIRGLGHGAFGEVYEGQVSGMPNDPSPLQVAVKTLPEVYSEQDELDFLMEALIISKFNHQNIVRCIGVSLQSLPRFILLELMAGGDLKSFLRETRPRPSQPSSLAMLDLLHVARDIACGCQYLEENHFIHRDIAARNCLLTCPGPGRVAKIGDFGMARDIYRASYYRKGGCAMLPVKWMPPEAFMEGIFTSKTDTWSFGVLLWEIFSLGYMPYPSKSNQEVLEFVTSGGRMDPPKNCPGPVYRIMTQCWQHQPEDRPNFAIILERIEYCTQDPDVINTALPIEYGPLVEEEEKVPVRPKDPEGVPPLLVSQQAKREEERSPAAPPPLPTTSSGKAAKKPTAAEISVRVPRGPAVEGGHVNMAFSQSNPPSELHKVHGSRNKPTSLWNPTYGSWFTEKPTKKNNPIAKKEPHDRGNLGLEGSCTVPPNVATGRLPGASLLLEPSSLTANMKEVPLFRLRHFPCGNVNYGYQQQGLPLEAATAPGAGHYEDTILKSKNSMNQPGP

[9] = molecular target: 468 kinases including some pathogenic mutants (Homo sapiens, UniProt O43293); conditions: DAPK3 (Entrez DAPK3), 100 nM; read-out: Percent Control
[10] = molecular target: 468 kinases including some pathogenic mutants (Homo sapiens, UniProt Q02779); conditions: MLK2 (Entrez MAP3K10), 100 nM; read-out: Percent Control
[11] = molecular target: 468 kinases including some pathogenic mutants (Homo sapiens, UniProt Q6P2M8); conditions: CAMK1B (Entrez PNCK), 100 nM; read-out: Percent Control
[12] = molecular target: 468 kinases including some pathogenic mutants (Homo sapiens, UniProt Q08881); conditions: ITK (Entrez ITK), 100 nM; read-out: Percent Control
[13] = molecular target: 468 kinases including some pathogenic mutants (Homo sapiens, UniProt Q9H093); conditions: SNARK (Entrez NUAK2), 100 nM; read-out: Percent Control
[14] = molecular target: 468 kinases including some pathogenic mutants (Homo sapiens, UniProt Q8TDX7); conditions: NEK7 (Entrez NEK7), 100 nM; read-out: Percent Control
[15] = molecular target: 468 kinases including some pathogenic mutants (Homo sapiens, UniProt Q12866); conditions: MERTK (Entrez MERTK), 100 nM; read-out: Percent Control
[16] = molecular target: 468 kinases including some pathogenic mutants (Homo sapiens, UniProt Q06418); conditions: TYRO3 (Entrez TYRO3), 100 nM; read-out: Percent Control
[17] = molecular target: 468 kinases including some pathogenic mutants (Homo sapiens, UniProt P15056); conditions: BRAF (Entrez BRAF), 100 nM; read-out: Percent Control
[18] = molecular target: 468 kinases including some pathogenic mutants (Homo sapiens, UniProt P00519, Y253F); conditions: read-out: Percent Control
[19] = molecular target: 468 kinases including some pathogenic mutants (Homo sapiens, UniProt Q9P286); conditions: PAK7 (Entrez PAK7), 100 nM; read-out: Percent Control
[20] = molecular target: 468 kinases including some pathogenic mutants (Homo sapiens, UniProt Q56UN5); conditions: YSK4 (Entrez MAP3K19), 1000 nM; read-out: Percent Control
[21] = molecular target: 468 kinases including some pathogenic mutants (Homo sapiens, UniProt O75914); conditions: PAK3 (Entrez PAK3), 100 nM; read-out: Percent Control
[22] = molecular target: 468 kinases including some pathogenic mutants (Homo sapiens, UniProt O75116); conditions: ROCK2 (Entrez ROCK2), 100 nM; read-out: Percent Control
[23] = molecular target: 468 kinases including some pathogenic mutants (Homo sapiens, UniProt P51956); conditions: NEK3 (Entrez NEK3), 100 nM; read-out: Percent Control
[24] = molecular target: 468 kinases including some pathogenic mutants (Homo sapiens, UniProt P52333); conditions: JAK3(JH1domain-catalytic) (Entrez JAK3), 100 nM; read-out: Percent Control
[25] = molecular target: 468 kinases including some pathogenic mutants (Homo sapiens, UniProt P12931); conditions: SRC (Entrez SRC), 1000 nM; read-out: Percent Control
[26] = molecular target: 468 kinases including some pathogenic mutants (Homo sapiens, UniProt P42336, Q546K); conditions: read-out: Percent Control
468 kinases including some pathogenic mutants (Homo sapiens, UniProt P42336, Q546K), sequence (P42336 whole entry Q546K): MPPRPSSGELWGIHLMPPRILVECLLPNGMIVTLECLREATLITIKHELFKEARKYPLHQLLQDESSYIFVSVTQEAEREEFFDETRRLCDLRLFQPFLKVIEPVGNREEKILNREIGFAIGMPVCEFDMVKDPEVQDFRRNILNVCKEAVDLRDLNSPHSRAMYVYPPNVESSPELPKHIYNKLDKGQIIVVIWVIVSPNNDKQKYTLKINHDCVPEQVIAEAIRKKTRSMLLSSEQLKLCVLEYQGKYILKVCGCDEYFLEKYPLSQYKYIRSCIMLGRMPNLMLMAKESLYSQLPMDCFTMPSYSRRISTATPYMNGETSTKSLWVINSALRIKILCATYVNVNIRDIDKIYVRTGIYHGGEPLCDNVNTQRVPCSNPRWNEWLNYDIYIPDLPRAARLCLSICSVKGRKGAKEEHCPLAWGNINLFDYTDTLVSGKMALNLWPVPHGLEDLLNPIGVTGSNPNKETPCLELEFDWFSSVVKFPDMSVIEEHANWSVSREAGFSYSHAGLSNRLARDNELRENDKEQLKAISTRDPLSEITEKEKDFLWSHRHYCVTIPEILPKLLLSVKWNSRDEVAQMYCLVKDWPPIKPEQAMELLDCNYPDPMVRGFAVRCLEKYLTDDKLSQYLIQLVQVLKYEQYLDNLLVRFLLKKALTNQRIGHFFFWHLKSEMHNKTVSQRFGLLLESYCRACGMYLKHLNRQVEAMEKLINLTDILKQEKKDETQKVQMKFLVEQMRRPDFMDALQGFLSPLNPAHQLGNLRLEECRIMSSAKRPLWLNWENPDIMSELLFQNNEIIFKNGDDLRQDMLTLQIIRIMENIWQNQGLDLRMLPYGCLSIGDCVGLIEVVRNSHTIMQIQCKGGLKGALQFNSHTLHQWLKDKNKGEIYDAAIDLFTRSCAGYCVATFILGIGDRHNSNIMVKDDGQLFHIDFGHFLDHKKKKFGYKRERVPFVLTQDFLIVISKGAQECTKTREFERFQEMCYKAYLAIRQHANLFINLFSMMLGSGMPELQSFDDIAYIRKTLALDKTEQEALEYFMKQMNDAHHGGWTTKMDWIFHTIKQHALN

[27] = molecular target: 468 kinases including some pathogenic mutants (Homo sapiens, UniProt Q9H2G2); conditions: SLK (Entrez SLK), 100 nM; read-out: Percent Control
[28] = molecular target: 468 kinases including some pathogenic mutants (Homo sapiens, UniProt O75716); conditions: STK16 (Entrez STK16), 1000 nM; read-out: Percent Control
[29] = molecular target: 468 kinases including some pathogenic mutants (Homo sapiens, UniProt P04629); conditions: TRKA (Entrez NTRK1), 100 nM; read-out: Percent Control

468 kinases including some pathogenic mutants (Homo sapiens, UniProt Q8WU08), sequence (Q8WU08 whole entry, change not shown): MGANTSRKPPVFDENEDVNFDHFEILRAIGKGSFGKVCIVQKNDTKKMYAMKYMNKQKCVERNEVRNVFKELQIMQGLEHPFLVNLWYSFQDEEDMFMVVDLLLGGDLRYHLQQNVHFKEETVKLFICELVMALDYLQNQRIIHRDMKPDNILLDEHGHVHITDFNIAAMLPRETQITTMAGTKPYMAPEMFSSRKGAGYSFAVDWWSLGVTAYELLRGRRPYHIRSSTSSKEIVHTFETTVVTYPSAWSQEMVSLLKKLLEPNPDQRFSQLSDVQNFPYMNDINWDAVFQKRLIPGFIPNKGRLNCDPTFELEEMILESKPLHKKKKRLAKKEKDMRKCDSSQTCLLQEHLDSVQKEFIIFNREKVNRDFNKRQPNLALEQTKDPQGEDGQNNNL

Structure (SMILES): CN1C(=O)[C@@H](N2CCc3c(nn(Cc4ccccc4)c3C(N)=O)C2=O)COc2cc(Cl)ccc21 [Compound 10, (S)-2-benzyl-6-(8-chloro-5-methyl-4-oxo-2,3,4,5-tetrahydrobenzo[b][1,4]oxazepin-3-yl)-7-oxo-4,5,6,7-tetrahydro-2H-pyrazolo[3,4-c]pyridine-3-carboxamide]
- remaining activity at 0.1 µM [1]: 89%
- remaining activity at 0.1 µM [2]: 92%
- remaining activity at 0.1 µM [3]: 100%
- remaining activity at 0.1 µM [4]: 54%
- remaining activity at 0.1 µM [5]: 56%
- remaining activity at 1 µM [6]: 100%
- remaining activity at 1 µM [7]: 100%
- remaining activity at 0.1 µM [8]: 93%
- remaining activity at 0.1 µM [9]: 79%
- remaining activity at 0.1 µM [10]: 64%
- remaining activity at 0.1 µM [11]: 79%
- remaining activity at 0.1 µM [12]: 79%
- remaining activity at 0.1 µM [13]: 84%
- remaining activity at 0.1 µM [14]: 77%
- remaining activity at 0.1 µM [15]: 72%
- remaining activity at 0.1 µM [16]: 100%
- remaining activity at 0.1 µM [17]: 58%
- remaining activity at 0.1 µM [18]: 76%
- remaining activity at 0.1 µM [19]: 80%
- remaining activity at 1 µM [20]: 100%
- remaining activity at 0.1 µM [21]: 53%
- remaining activity at 0.1 µM [22]: 75%
- remaining activity at 0.1 µM [23]: 100%
- remaining activity at 0.1 µM [24]: 100%
- remaining activity at 1 µM [25]: 100%
- remaining activity at 0.1 µM [26]: 76%
- remaining activity at 0.1 µM [27]: 89%
- remaining activity at 1 µM [28]: 100%
- remaining activity at 0.1 µM [29]: 99%
